From PMC10196118, “Evidence for broad cross-reactivity of the SARS-CoV-2 NSP12-directed CD4^+ T-cell response with pre-primed responses directed against common cold coronaviruses” (Frontiers in Immunology, 2023)

Assays:
HLA DRB1*11:01 = HLA DRB1*11:01 (Homo sapiens, UniProt P01903+P01911, A100R/A169T/A87E/I96F/K41T/L162R/M171V/P40S/Q125H/Q178H/Q39Y/Q99D/R42S/S66Y/T262R/V115G/W38E); assay: biochemical; type: binding; details: binder threshold 1,000 nM, read-out: In vitro (IC50 nM) DRB1*11:01
HLA DRB1*13:02 = HLA DRB1*13:02 (Homo sapiens, UniProt P01903+P01911, A100E/A169T/K41T/L162R/M171V/P40S/Q125H/Q178H/Q39Y/Q99D/R42S/S66N/T262R/V115G/W38E/Y61H); assay: biochemical; type: binding; details: binder threshold 1,000 nM, read-out: In vitro (IC50 nM) DRB1*13:02
HLA DRB1*08:02 = HLA DRB1*08:02 (Homo sapiens, UniProt P01903+P01911, A100R/A103L/A169T/F76Y/H45Y/I96F/K41T/L162R/M171V/P40S/Q125H/Q178H/Q39Y/Q99D/R218S/R42G/S66Y/V115G/W38E); assay: biochemical; type: binding; details: binder threshold 1,000 nM, read-out: In vitro (IC50 nM) DRB1*08:02
HLA DRB1*09:01 = HLA DRB1*09:01 (Homo sapiens, UniProt P01903+P01911, A100R/A103E/D57H/D86V/F55Y/F60I/F76Y/I96F/K127E/L162R/M171V/P40D/Q125H/Q99R/R33Q/R42F/S133A/S66N/T210M/V115G/W38K/Y107V/Y59G/Y89S); assay: biochemical; type: binding; details: binder threshold 1,000 nM, read-out: In vitro (IC50 nM) DRB1*09:01
HLA DRB1*04:01 = HLA DRB1*04:01 (Homo sapiens, UniProt P01903+P01911, A100K/A169T/F76Y/I96L/K127E/L162R/M171V/N62H/P40V/Q125Y/R42H/S133A/S149N/S66Y/V115G/V209L/W38E); assay: biochemical; type: binding; details: binder threshold 1,000 nM, read-out: In vitro (IC50 nM) DRB1*04:01
HLA DRB1*07:01 = HLA DRB1*07:01 (Homo sapiens, UniProt P01903+P01911, A100R/A102G/A103Q/D57E/D86V/E43K/F76Y/K127E/L162R/M171V/P40G/Q125H/Q99D/R33Q/R42Y/R54Q/S133A/S66F/T210M/V115G/Y107V/Y59L/Y89S); assay: biochemical; type: binding; details: binder threshold 1,000 nM, read-out: In vitro (IC50 nM) DRB1*07:01
HLA DRB1*04:05 = HLA DRB1*04:05 (Homo sapiens, UniProt P01903+P01911, A100R/A169T/D86S/F76Y/I96L/K127E/L162R/M171V/N62H/P40V/Q125Y/R42H/S133A/S149N/S66Y/V115G/V209L/W38E); assay: biochemical; type: binding; details: binder threshold 1,000 nM, read-out: In vitro (IC50 nM) DRB1*04:05
HLA DRB1*03:01 = HLA DRB1*03:01 (Homo sapiens, UniProt P01903+P01911, A100K/A102G/A103R/A169T/F55Y/I96L/K41T/L162R/M171V/P40S/Q125H/Q178H/Q39Y/R42S/S66N/T106N/T262R/W38E/Y61H); assay: biochemical; type: binding; details: binder threshold 1,000 nM, read-out: In vitro (IC50 nM) DRB1*03:01
HLA DRB1*12:01 = HLA DRB1*12:01 (Homo sapiens, UniProt P01903+P01911, A100R/A169T/D57E/D86V/F55L/H45Y/K41T/L162R/M171V/P40S/Q125H/Q178H/Q39Y/Q99D/R42G/S66L/T262R/V114A/V67L/W38E/Y59H/Y61H/Y89S); assay: biochemical; type: binding; details: binder threshold 1,000 nM, read-out: In vitro (IC50 nM) DRB1*12:01
HLA DRB1*01:01 = HLA DRB1*01:01 (Homo sapiens, UniProt P01903+P01911, A100R/D57E/F55L/F60I/F76Y/I96L/L162R/M171V/P40L/Q125E/R42F/V115G/Y59C); assay: biochemical; type: binding; details: binder threshold 1,000 nM, read-out: In vitro (IC50 nM) DRB1*01:01
HLA DRB1*15:01 = HLA DRB1*15:01 (Homo sapiens, UniProt P01903+P01911); assay: biochemical; type: binding; details: binder threshold 1,000 nM, read-out: In vitro (IC50 nM) DRB1*15:01
CD4+ T cells = assay: Peptide-specific CD4+ T-cell response: IFN-γ ELISpot validated by intracellular cytokine staining after in vitro expansion; type: cell-based, human; details: COVID-19 patients (acute or resolved, n = 27); peptide 10 µg/ml; share of individuals with a positive response
[1] = test system: pre-cultured PBMCs (NSP12-specific T cells); assay: IFN-γ ELISpot with single 15-mer peptides after 11–13 days in vitro peptide-pool T-cell expansion; type: cell-based, human; details: single NSP12 15-mer peptides
11 DRB1-HLA molecules = assay: In vitro HLA class II binding, number of DRB1 alleles bound; design: species or system human; details: number of the 11 DRB1-HLA molecules tested bound with an affinity of 1,000 nM or better (in vitro)

HLA DRB1*03:01, sequence (P01903 26-254, other chains not shown): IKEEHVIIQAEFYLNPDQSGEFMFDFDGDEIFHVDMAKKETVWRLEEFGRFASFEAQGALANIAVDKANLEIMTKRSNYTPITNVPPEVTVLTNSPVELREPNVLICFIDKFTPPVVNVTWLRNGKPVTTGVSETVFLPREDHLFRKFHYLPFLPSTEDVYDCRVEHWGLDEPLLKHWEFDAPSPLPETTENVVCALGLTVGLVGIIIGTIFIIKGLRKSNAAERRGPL
HLA DRB1*13:02, sequence (P01903 26-254 limits assumed, other chains not shown): as the sequence (P01903 26-254, other chains not shown) above
HLA DRB1*11:01, sequence (P01903 26-254, other chains not shown): as above

| Compound | IC50 (HLA DRB1*11:01) | IC50 (HLA DRB1*13:02) | IC50 (HLA DRB1*08:02) | IC50 (HLA DRB1*09:01) | IC50 (HLA DRB1*04:01) | IC50 (HLA DRB1*07:01) | IC50 (HLA DRB1*04:05) | IC50 (HLA DRB1*03:01) | IC50 (HLA DRB1*12:01) | IC50 (HLA DRB1*01:01) | IC50 (HLA DRB1*15:01) | other results |
| --- | --- | --- | --- | --- | --- | --- | --- | --- | --- | --- | --- | --- |
| CC(C)C[C@H](NC(=O)[C@H](CCCNC(=N)N)NC(=O)[C@H](Cc1ccc(O)cc1)NC(=O)[C@H](Cc1ccccc1)NC(=O)[C@H](CCCNC(=N)N)NC(=O)[C@H](Cc1c[nH]cn1)NC(=O)[C@H](CO)NC(=O)[C@H](CC(C)C)NC(=O)[C@H](CO)NC(=O)[C@H](CS)NC(=O)[C@H](CS)NC(=O)[C@@H](NC(=O)[C@@H](NC(=O)[C@H](Cc1c[nH]cn1)NC(=O)[C@@H](N)CCCCN)[C@@H](C)O)[C@@H](C)O)C(=O)O [NSP12_129] | 235 nM | 1170 nM | 1010 nM | 286 nM | 613 nM | 56 nM | 644 nM | 916 nM | 59 nM | 279 nM | 447 nM | – |
| CC(C)C[C@H](NC(=O)[C@H](CCCNC(=N)N)NC(=O)[C@H](Cc1ccc(O)cc1)NC(=O)[C@H](Cc1ccccc1)NC(=O)[C@H](CCCNC(=N)N)NC(=O)[C@H](Cc1c[nH]cn1)NC(=O)[C@H](CO)NC(=O)[C@H](CC(C)C)NC(=O)[C@H](CO)NC(=O)[C@@H](N)CS)C(=O)N[C@@H](C)C(=O)N[C@@H](CC(N)=O)C(=O)N[C@@H](CCC(=O)O)C(=O)N[C@@H](CS)C(=O)N[C@@H](C)C(=O)O [NSP12_130] | – | – | – | – | – | – | – | – | – | – | – | RF (response frequency), CD4+ T-cell response (CD4+ T cells): 26%; peptide-specific response, donor HH-N12-18, post COVID-19 ([1]; donor HH-N12-18, sample post COVID-19): 0; peptide-specific response, donor HH-N12-18, pre COVID-19 ([1]; donor HH-N12-18, sample pre COVID-19): 0; peptide-specific response, donor HH-N12-34, post COVID-19 ([1]; donor HH-N12-34, sample post COVID-19): 0.031; peptide-specific response, donor HH-N12-34, pre COVID-19 ([1]; donor HH-N12-34, sample pre COVID-19): 0.09; peptide-specific response, donor HH-N12-35, post COVID-19 ([1]; donor HH-N12-35, sample post COVID-19): 0; peptide-specific response, donor HH-N12-35, pre COVID-19 ([1]; donor HH-N12-35, sample pre COVID-19): 0; peptide-specific response, donor HH-N12-36, post COVID-19 ([1]; donor HH-N12-36, sample post COVID-19): 0.06; peptide-specific response, donor HH-N12-36, pre COVID-19 ([1]; donor HH-N12-36, sample pre COVID-19): 0; peptide-specific response, donor HH-N12-37, post COVID-19 ([1]; donor HH-N12-37, sample post COVID-19): 0.032; peptide-specific response, donor HH-N12-37, pre COVID-19 ([1]; donor HH-N12-37, sample pre COVID-19): 0; Alleles bound (11 DRB1-HLA molecules): 8 |
| CC(C)C[C@H](NC(=O)[C@H](CCCNC(=N)N)NC(=O)[C@H](Cc1ccc(O)cc1)NC(=O)[C@H](Cc1ccccc1)NC(=O)[C@@H](N)CCCNC(=N)N)C(=O)N[C@@H](C)C(=O)N[C@@H](CC(N)=O)C(=O)N[C@@H](CCC(=O)O)C(=O)N[C@@H](CS)C(=O)N[C@@H](C)C(=O)N[C@@H](CCC(N)=O)C(=O)N[C@H](C(=O)N[C@@H](CC(C)C)C(=O)N[C@@H](CO)C(=O)N[C@@H](CCC(=O)O)C(=O)O)C(C)C [NSP12_131] | 367 nM | 23800 nM | 2350 nM | 48 nM | 27 nM | 279 nM | 270 nM | 8410 nM | 6320 nM | 53 nM | 611 nM | – |
| CC[C@H](C)[C@H](NC(=O)[C@H](CCSC)NC(=O)[C@H](CCSC)NC(=O)[C@H](CO)NC(=O)[C@H](Cc1ccccc1)NC(=O)[C@H](Cc1c[nH]cn1)NC(=O)[C@H](CCCCN)NC(=O)[C@H](CCCNC(=N)N)NC(=O)[C@H](CC(C)C)NC(=O)[C@H](Cc1ccc(O)cc1)NC(=O)[C@H](C)NC(=O)[C@@H](N)Cc1ccc(O)cc1)C(=O)N[C@@H](CC(C)C)C(=O)N[C@@H](CO)C(=O)N[C@@H](CC(=O)O)C(=O)O [Peptide 150] | 7.9 nM | 755 nM | 138 nM | 4.8 nM | 102 nM | 0.73 nM | 318 nM | 5020 nM | 96 nM | 495 nM | 0.23 nM | – |
